Laboratory results taken from ChEMBL document CHEMBL1146539, “Homopseudopteroxazole, a new antimycobacterial diterpene alkaloid from Pseudopterogorgia elisabethae” (2003).
Values after ≈ are worked out from the molar mass of the structure shown.

System: Mycobacterium tuberculosis
Assay: Antimycobacterial activity against Mycobacterium tuberculosis H37Rv
Type: functional
Conditions: for MIC: Mycobacterium tuberculosis, H37Rv

SMILES | inhibition (INH) | MIC
CC(C)=CCC[C@H](C)[C@H]1CC[C@H](C)c2c1cc(C)c1ncoc21 | 66% | 12.5 µg/mL (≈ 40.1 µM)
CCCCCc1nc2c(C)c3c4c(c2o1)[C@@H](C)CC[C@@H]4[C@@H](C)C[C@H]3C=C(C)C [HOMOPSEUDOPTEROXAZOLE] | 80% | 12.5 µg/mL (≈ 32.9 µM)
CC(C)=C[C@@H]1C[C@H](C)[C@H]2CC[C@H](C)c3c2c1c(C)c1ncoc31 [PSEUDOPTEROXAZOLE] | 97% | 12.5 µg/mL (≈ 40.4 µM)
